Data taken from patent US9113629B2, “4-amino-6-(4-substituted-phenyl)-picolinates and 6-amino-2-(4-substituted-phenyl)-pyrimidine-4-carboxylates and their use as herbicides” (DOW AGROSCIENCES LLC, priority 2013, dated 2015).
Like-named read-outs stand apart in the source and are kept apart here. Values belong to the molecule of their own block, whether it stands above or below them.

Legend:
[1] = test system: Key Grass and Sedge Weeds as well as Grass Crops; test: Post-emergent Test II herbicidal activity (Table 6); format: in vivo; conditions: post-emergence, 336 h
Method in brief: (§1)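 Post-emergence foliar spray, 187 L/ha, track sprayer at 43 cm above canopy. Carrier: acetone/water/IPA/DMSO/Atplus 411F/Triton X-155. Plants at 1st–2nd true leaf; subirrigated afterwards; % injury scored visually at 14 d.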

[2] = test system: Key Broadleaf Weed and Crop Species; test: Post-emergent Test II herbicidal activity (Table 5); format: in vivo; conditions: post-emergence, 336 h, 14 days after application; for pest or weed control at 70 g/ha: application rate 70 g ai/ha; for pest or weed control at 140 g/ha: application rate 140 g ai/ha
Method in brief: as §1

[3] = CYPES: yellow nutsedge (Cyperus esculentus), 70 g ai/ha, read-out: Visual Growth Reduction (%) 14 Days After Application, CYPES
[4] = CYPES: yellow nutsedge (Cyperus esculentus), 140 g ai/ha, read-out: Visual Growth Reduction (%) 14 Days After Application, CYPES
[5] = DIGSA: crabgrass (Digitaria sanguinalis), 70 g ai/ha, read-out: Visual Growth Reduction (%) 14 Days After Application, DIGSA
[6] = DIGSA: crabgrass (Digitaria sanguinalis), 140 g ai/ha, read-out: Visual Growth Reduction (%) 14 Days After Application, DIGSA
[7] = ECHCG: barnyardgrass (Echinochloa crus-galli), 140 g ai/ha, read-out: Visual Growth Reduction (%) 14 Days After Application, ECHCG
[8] = ORYSA: rice (Oryza sativa), crop, 70 g ai/ha, read-out: Visual Growth Reduction (%) 14 Days After Application, ORYSA
[9] = ORYSA: rice (Oryza sativa), crop, 140 g ai/ha, read-out: Visual Growth Reduction (%) 14 Days After Application, ORYSA
[10] = SETFA: giant foxtail (Setaria faberi), 70 g ai/ha, read-out: Visual Growth Reduction (%) 14 Days After Application, SETFA
[11] = SETFA: giant foxtail (Setaria faberi), 140 g ai/ha, read-out: Visual Growth Reduction (%) 14 Days After Application, SETFA
[12] = SORVU: grain sorghum (Sorghum vulgare), 70 g ai/ha, read-out: Visual Growth Reduction (%) 14 Days After Application, SORVU
[13] = SORVU: grain sorghum (Sorghum vulgare), 140 g ai/ha, read-out: Visual Growth Reduction (%) 14 Days After Application, SORVU
[14] = TRZSS (wheat, Triticum aestivum), crop, 70 g ai/ha, read-out: Visual Growth Reduction (%) 14 Days After Application, TRZSS
[15] = TRZSS (wheat, Triticum aestivum), crop, 140 g ai/ha, read-out: Visual Growth Reduction (%) 14 Days After Application, TRZSS
[16] = ZEAMX: maize, corn (Zea mays), crop, 70 g ai/ha, read-out: Visual Growth Reduction (%) 14 Days After Application, ZEAMX
[17] = ZEAMX: maize, corn (Zea mays), crop, 140 g ai/ha, read-out: Visual Growth Reduction (%) 14 Days After Application, ZEAMX
[18] = ABUTH: velvetleaf (Abutilon theophrasti), read-out: Visual Growth Reduction (%) 14 Days After Application, ABUTH
[19] = AMARE: redroot pigweed (Amaranthus retroflexus), read-out: Visual Growth Reduction (%) 14 Days After Application, AMARE
[20] = BRSNN: oilseed-rape, canola (Brassica napus), read-out: Visual Growth Reduction (%) 14 Days After Application, BRSNN
[21] = CHEAL: lambsquarters (Chenopodium album), read-out: Visual Growth Reduction (%) 14 Days After Application, CHEAL
[22] = EPHHL: wild poinsettia (Euphorbia heterophylla), read-out: Visual Growth Reduction (%) 14 Days After Application, EPHHL
[23] = HELAN: sunflower (Helianthus annuus), read-out: Visual Growth Reduction (%) 14 Days After Application, HELAN
[24] = VIOTR: wild pansy (Viola tricolor), read-out: Visual Growth Reduction (%) 14 Days After Application, VIOTR

melting point: 131 to 132 °C
Compound: COC(=O)c1nc(-c2ccc(C(F)(F)F)c(F)c2F)c(F)c(N)c1Cl [Compound 149]
pest or weed control at 70 g/ha [1, 3]: 95 to 100%
pest or weed control at 140 g/ha [1, 4]: 95 to 100%
pest or weed control at 70 g/ha [1, 5]: 30 to 44%
pest or weed control at 140 g/ha [1, 6]: 30 to 44%
pest or weed control at 70 g/ha ([1]; ECHCG: barnyardgrass (Echinochloa crus-galli), 70 g ai/ha, read-out: Visual Growth Reduction (%) 14 Days After Application, ECHCG): 95 to 100%
pest or weed control at 140 g/ha [1, 7]: 95 to 100%
pest or weed control at 70 g/ha [1, 8]: 0 to 29%
pest or weed control at 140 g/ha [1, 9]: 0 to 29%
pest or weed control at 70 g/ha [1, 10]: 30 to 44%
pest or weed control at 140 g/ha [1, 11]: 30 to 44%
pest or weed control at 70 g/ha [1, 12]: 95 to 100%
pest or weed control at 140 g/ha [1, 13]: 95 to 100%
pest or weed control at 70 g/ha [1, 14]: 30 to 44%
pest or weed control at 140 g/ha [1, 15]: 45 to 59%
pest or weed control at 70 g/ha [1, 16]: 75 to 84%
pest or weed control at 140 g/ha [1, 17]: 85 to 94%
pest or weed control at 70 g/ha [2, 18]: 95 to 100%
pest or weed control at 140 g/ha [2, 18]: 95 to 100%
pest or weed control at 70 g/ha [2, 19]: 95 to 100%
pest or weed control at 140 g/ha [2, 19]: 95 to 100%
pest or weed control at 70 g/ha [2, 20]: 85 to 94%
pest or weed control at 140 g/ha [2, 20]: 95 to 100%
pest or weed control at 70 g/ha [2, 21]: 95 to 100%
pest or weed control at 140 g/ha [2, 21]: 95 to 100%
pest or weed control at 70 g/ha [2, 22]: 95 to 100%
pest or weed control at 140 g/ha [2, 22]: 95 to 100%
pest or weed control at 70 g/ha [2, 23]: 95 to 100%
pest or weed control at 140 g/ha [2, 23]: 95 to 100%
pest or weed control at 70 g/ha [2, 24]: 85 to 94%
pest or weed control at 140 g/ha [2, 24]: 85 to 94%

melting point: 112 to 114 °C
Compound: COC(=O)c1nc(-c2ccc(OC(F)F)c(F)c2)c(F)c(N)c1Cl [Compound 152]
pest or weed control at 70 g/ha [1, 3]: 60 to 74%
pest or weed control at 140 g/ha [1, 4]: 95 to 100%
pest or weed control at 70 g/ha [1, 5]: 45 to 59%
pest or weed control at 140 g/ha [1, 6]: 75 to 84%
pest or weed control at 140 g/ha [1, 7]: 85 to 94%
pest or weed control at 70 g/ha [1, 8]: 0 to 29%
pest or weed control at 140 g/ha [1, 9]: 0 to 29%
pest or weed control at 70 g/ha [1, 10]: 0 to 29%
pest or weed control at 140 g/ha [1, 11]: 45 to 59%
pest or weed control at 70 g/ha [1, 12]: 45 to 59%
pest or weed control at 140 g/ha [1, 13]: 45 to 59%
pest or weed control at 70 g/ha [1, 14]: 0 to 29%
pest or weed control at 140 g/ha [1, 15]: 0 to 29%
pest or weed control at 70 g/ha [1, 16]: 95 to 100%
pest or weed control at 140 g/ha [1, 17]: 95 to 100%
pest or weed control at 70 g/ha [2, 18]: 85 to 94%
pest or weed control at 140 g/ha [2, 18]: 85 to 94%
pest or weed control at 70 g/ha [2, 19]: 85 to 94%
pest or weed control at 140 g/ha [2, 19]: 85 to 94%
pest or weed control at 70 g/ha [2, 20]: 85 to 94%
pest or weed control at 140 g/ha [2, 20]: 85 to 94%
pest or weed control at 70 g/ha [2, 21]: 85 to 94%
pest or weed control at 140 g/ha [2, 21]: 85 to 94%
pest or weed control at 70 g/ha [2, 22]: 95 to 100%
pest or weed control at 140 g/ha [2, 22]: 95 to 100%
pest or weed control at 70 g/ha [2, 23]: 75 to 84%
pest or weed control at 140 g/ha [2, 23]: 85 to 94%
pest or weed control at 70 g/ha [2, 24]: 0 to 29%
pest or weed control at 140 g/ha [2, 24]: 0 to 29%

melting point: 142 to 144 °C
Compound: C#Cc1ccc(-c2nc(N)c(OC)c(C(=O)O)n2)c(F)c1F [Compound 154]
pest or weed control at 70 g/ha ([1]; Triticum aestivum, TRZSS (wheat), application rate 70 g ai/ha, read-out: Visual Growth Reduction (%) 14 Days After Application, TRZSS): 0 to 29%
pest or weed control at 140 g/ha ([1]; Triticum aestivum, TRZSS (wheat), application rate 140 g ai/ha, read-out: Visual Growth Reduction (%) 14 Days After Application, TRZSS): 0 to 29%
pest or weed control at 70 g/ha ([1]; CYPES: yellow nutsedge (Cyperus esculentus), application rate 70 g ai/ha, read-out: Visual Growth Reduction (%) 14 Days After Application, CYPES): 0 to 29%
pest or weed control at 140 g/ha ([1]; CYPES: yellow nutsedge (Cyperus esculentus), application rate 140 g ai/ha, read-out: Visual Growth Reduction (%) 14 Days After Application, CYPES): 0 to 29%
pest or weed control at 70 g/ha ([1]; DIGSA: crabgrass (Digitaria sanguinalis), application rate 70 g ai/ha, read-out: Visual Growth Reduction (%) 14 Days After Application, DIGSA): 0 to 29%
pest or weed control at 140 g/ha ([1]; DIGSA: crabgrass (Digitaria sanguinalis), application rate 140 g ai/ha, read-out: Visual Growth Reduction (%) 14 Days After Application, DIGSA): 0 to 29%
pest or weed control at 70 g/ha ([1]; ECHCG: barnyardgrass (Echinochloa crus-galli), application rate 70 g ai/ha, read-out: Visual Growth Reduction (%) 14 Days After Application, ECHCG): 45 to 59%
pest or weed control at 140 g/ha ([1]; ECHCG: barnyardgrass (Echinochloa crus-galli), application rate 140 g ai/ha, read-out: Visual Growth Reduction (%) 14 Days After Application, ECHCG): 45 to 59%
pest or weed control at 70 g/ha ([1]; ORYSA: rice (Oryza sativa), application rate 70 g ai/ha, read-out: Visual Growth Reduction (%) 14 Days After Application, ORYSA): 0 to 29%
pest or weed control at 140 g/ha ([1]; ORYSA: rice (Oryza sativa), application rate 140 g ai/ha, read-out: Visual Growth Reduction (%) 14 Days After Application, ORYSA): 0 to 29%
pest or weed control at 70 g/ha ([1]; SETFA: giant foxtail (Setaria faberi), application rate 70 g ai/ha, read-out: Visual Growth Reduction (%) 14 Days After Application, SETFA): 0 to 29%
pest or weed control at 140 g/ha ([1]; SETFA: giant foxtail (Setaria faberi), application rate 140 g ai/ha, read-out: Visual Growth Reduction (%) 14 Days After Application, SETFA): 0 to 29%
pest or weed control at 70 g/ha ([1]; SORVU: grain sorghum (Sorghum vulgare), application rate 70 g ai/ha, read-out: Visual Growth Reduction (%) 14 Days After Application, SORVU): 0 to 29%
pest or weed control at 140 g/ha ([1]; SORVU: grain sorghum (Sorghum vulgare), application rate 140 g ai/ha, read-out: Visual Growth Reduction (%) 14 Days After Application, SORVU): 0 to 29%
pest or weed control at 70 g/ha ([1]; ZEAMX: maize, corn (Zea mays), application rate 70 g ai/ha, read-out: Visual Growth Reduction (%) 14 Days After Application, ZEAMX): 0 to 29%
pest or weed control at 140 g/ha ([1]; ZEAMX: maize, corn (Zea mays), application rate 140 g ai/ha, read-out: Visual Growth Reduction (%) 14 Days After Application, ZEAMX): 0 to 29%
pest or weed control at 70 g/ha [2, 18]: 0 to 29%
pest or weed control at 140 g/ha [2, 18]: 45 to 59%
pest or weed control at 70 g/ha [2, 19]: 0 to 29%
pest or weed control at 140 g/ha [2, 19]: 0 to 29%
pest or weed control at 70 g/ha [2, 20]: 0 to 29%
pest or weed control at 140 g/ha [2, 20]: 60 to 74%
pest or weed control at 70 g/ha [2, 21]: 0 to 29%
pest or weed control at 140 g/ha [2, 21]: 45 to 59%
pest or weed control at 70 g/ha [2, 22]: 95 to 100%
pest or weed control at 140 g/ha [2, 22]: 95 to 100%
pest or weed control at 70 g/ha [2, 23]: 75 to 84%
pest or weed control at 140 g/ha [2, 23]: 75 to 84%
pest or weed control at 70 g/ha [2, 24]: 0 to 29%
pest or weed control at 140 g/ha [2, 24]: 0 to 29%
